Laboratory results reported in patent US20190216829A1, “Anticancer Compositions” (ARAGON PHARMACEUTICALS, INC., priority 2016, published 2019).
In brackets after ≈: the same amount, converted by molar mass.

Assay: Solubility of ARN-509 forms in water
Assay type: physicochemical
Description: Solubility of Form A: 0.01 mg/ml in water.
Solubility of Form B: 0.004 mg/ml in water.

| Solubility [µg/mL] | SMILES |
| --- | --- |
| 10 (≈ 20.9 µM) | CNC(=O)c1ccc(N2C(=S)N(c3cnc(C#N)c(C(F)(F)F)c3)C(=O)C23CCC3)cc1F [Form A, 4-[7-(6-cyano-5-trifluoromethylpyridin-3-yl)-8-oxo-6-thioxo-5,7-diazaspiro[3.4]oct-5-yl]-2-fluoro-N-methylbenzamide] |
| 4 (≈ 8.38 µM) | CNC(=O)c1ccc(N2C(=S)N(c3cnc(C#N)c(C(F)(F)F)c3)C(=O)C23CCC3)cc1F [Form B, 4-[7-(6-cyano-5-trifluoromethylpyridin-3-yl)-8-oxo-6-thioxo-5,7-diazaspiro[3.4]oct-5-yl]-2-fluoro-N-methylbenzamide] |
